ChEMBL document CHEMBL4385645, “Broad-spectrum antifungal activity of spirooxindolo-pyrrolidine tethered indole/imidazole hybrid heterocycles against fungal pathogens” (Bioorg Med Chem Lett, 2019)
Values after ≈ are worked out from the molar mass of the structure shown. Active and inactive are the calls of the source. The calls are words filed in the database; no cut-off is given here.

How the values were obtained:
Candida albicans [1] = test: Antifungal activity against Candida albicans assessed as reduction in fungal growth incubated for 24 hrs by broth microdilution method; type: functional
Candida albicans [2] = test: Antifungal activity against Candida albicans NR-29449 assessed as reduction in fungal growth incubated for 24 hrs by broth microdilution method; type: functional; details: NR-29449, 24 h
Candida albicans [3] = test: Antifungal activity against Candida albicans NR-29438 assessed as reduction in fungal growth incubated for 24 hrs by broth microdilution method; type: functional; details: NR-29438, 24 h
Candida albicans [4] = test: Antifungal activity against Candida albicans ATCC 10231 assessed as reduction in fungal growth incubated for 24 hrs by broth microdilution method; type: functional; details: ATCC 10231, 24 h
Candida albicans [5] = test: Antifungal activity against Candida albicans NR-29440 assessed as reduction in fungal growth incubated for 24 hrs by broth microdilution method; type: functional; details: NR-29440, 24 h
Candida albicans [6] = test: Antifungal activity against Candida albicans assessed as reduction in hyphae formation and attachment at 32 to 64 ug/ml incubated for 12 hrs by crystal violet dye-based microscopic analysis; type: functional; set-up: scale not given: the % may be the effect or the level left
Cryptococcus neoformans [7] = test: Antifungal activity against Cryptococcus neoformans NR-41298 assessed as reduction in fungal growth incubated for 24 hrs by broth microdilution method; type: functional; details: NR-41298, 24 h
Candida albicans [8] = test: Antifungal activity against Candida albicans NR-29437 assessed as reduction in fungal growth incubated for 24 hrs by broth microdilution method; type: functional; details: NR-29437, 24 h
Candida albicans [9] = test: Antifungal activity against Candida albicans NR-29434 assessed as reduction in fungal growth incubated for 24 hrs by broth microdilution method; type: functional; details: NR-29434, 24 h
Cryptococcus neoformans [10] = test: Antifungal activity against Cryptococcus neoformans NR-41297 assessed as reduction in fungal growth incubated for 24 hrs by broth microdilution method; type: functional; details: NR-41297, 24 h
Cryptococcus neoformans [11] = test: Antifungal activity against Cryptococcus neoformans NR-41291 assessed as reduction in fungal growth incubated for 24 hrs by broth microdilution method; type: functional; details: NR-41291, 24 h
Candida albicans [12] = test: Antifungal activity against Candida albicans NR-29442 assessed as reduction in fungal growth incubated for 24 hrs by broth microdilution method; type: functional; details: NR-29442, 24 h
Candida albicans [13] = test: Antifungal activity against Candida albicans NR-29439 assessed as reduction in fungal growth incubated for 24 hrs by broth microdilution method; type: functional; details: NR-29439, 24 h
Cryptococcus neoformans [14] = test: Antifungal activity against Cryptococcus neoformans NR-41294 assessed as reduction in fungal growth incubated for 24 hrs by broth microdilution method; type: functional; details: NR-41294, 24 h
Cryptococcus neoformans [15] = test: Antifungal activity against Cryptococcus neoformans NR-41296 assessed as reduction in fungal growth incubated for 24 hrs by broth microdilution method; type: functional; details: NR-41296, 24 h
Candida albicans [16] = test: Antifungal activity against Candida albicans NR-29448 assessed as reduction in fungal growth incubated for 24 hrs by broth microdilution method; type: functional; details: NR-29448, 24 h
Cryptococcus neoformans [17] = test: Antifungal activity against Cryptococcus neoformans NR-41292 assessed as reduction in fungal growth incubated for 24 hrs by broth microdilution method; type: functional; details: NR-41292, 24 h
Candida albicans [18] = test: Inhibition of biofilm formation in Candida albicans assessed as reduction in metabolic activity at 32 and 64 ug/ml incubated for 48 hrs by MTS assay; type: functional
Candida albicans [19] = test: Antifungal activity against Candida albicans NR-29446 assessed as reduction in fungal growth incubated for 24 hrs by broth microdilution method; type: functional; details: NR-29446, 24 h
HCT-116 = test: Cytotoxicity against human HCT116 cells assessed as reduction in cell viability at 2 to 128 ug/ml incubated for 24 hrs by MTS assay; type: cell-based; details: hct-116, 24 h
Candida albicans [20] = test: Antifungal activity against Candida albicans NR-29366 assessed as reduction in fungal growth incubated for 24 hrs by broth microdilution method; type: functional, organism-based
Cryptococcus neoformans [21] = test: Antifungal activity against Cryptococcus neoformans NR-41299 assessed as reduction in fungal growth incubated for 24 hrs by broth microdilution method; type: functional; details: NR-41299, 24 h
Candida albicans [22] = test: Antifungal activity against Candida albicans NR-29444 assessed as reduction in fungal growth incubated for 24 hrs by broth microdilution method; type: functional; details: NR-29444, 24 h
Candida albicans [23] = test: Antifungal activity against Candida albicans NR5-29453 assessed as reduction in fungal growth incubated for 24 hrs by broth microdilution method; type: functional; details: NR5-29453, 24 h
Candida albicans [24] = test: Antifungal activity against Candida albicans NR-29367 assessed as reduction in fungal growth incubated for 24 hrs by broth microdilution method; type: functional; details: NR-29367, 24 h
Candida albicans [25] = test: Antifungal activity against Candida albicans NR-29435 assessed as reduction in fungal growth incubated for 24 hrs by broth microdilution method; type: functional; details: NR-29435, 24 h
Candida albicans [26] = test: Antifungal activity against Candida albicans NR-29441 assessed as reduction in fungal growth incubated for 24 hrs by broth microdilution method; type: functional; details: NR-29441, 24 h
Cryptococcus neoformans [27] = test: Antifungal activity against Cryptococcus neoformans NR-41295 assessed as reduction in fungal growth incubated for 24 hrs by broth microdilution method; type: functional; details: NR-41295, 24 h

## O=C1Nc2ccccc2[C@@]12N[C@H](Cc1c[nH]c3ccccc13)[C@@H]([N+](=O)[O-])[C@@H]2c1ccccc1Cl
Candida albicans [1]
  MIC: 32 µg/mL (≈ 67.7 µM)

## O=C1Nc2ccc(OC(F)(F)F)cc2[C@@]12N[C@H](Cc1c[nH]cn1)[C@@H]([N+](=O)[O-])[C@@H]2c1ccccc1
Candida albicans [1]
  MIC: 32 µg/mL (≈ 67.6 µM)

## O=C1Nc2ccc(OC(F)(F)F)cc2[C@@]12N[C@H](Cc1c[nH]c3ccccc13)[C@@H]([N+](=O)[O-])[C@@H]2c1cccc([N+](=O)[O-])c1
Candida albicans [1]
  MIC: 16 µg/mL (≈ 28.2 µM)

## O=C1Nc2ccccc2[C@@]12N[C@H](Cc1c[nH]c3ccccc13)[C@@H]([N+](=O)[O-])[C@@H]2c1ccc(Br)cc1
Candida albicans [1]
  MIC: 64 µg/mL (≈ 124 µM)

## O=C1Nc2ccc(OC(F)(F)F)cc2[C@@]12N[C@H](Cc1c[nH]c3ccccc13)[C@@H]([N+](=O)[O-])[C@@H]2c1ccccc1Cl
Candida albicans [1]
  MIC: 16 µg/mL (≈ 28.7 µM)

## O=C1Nc2ccccc2[C@@]12N[C@H](Cc1c[nH]c3ccccc13)[C@@H]([N+](=O)[O-])[C@@H]2c1cccc([N+](=O)[O-])c1
Candida albicans [1]
  MIC: 8 µg/mL (≈ 16.5 µM)

## O=C1Nc2ccc(OC(F)(F)F)cc2[C@@]12N[C@H](Cc1c[nH]c3ccccc13)[C@@H]([N+](=O)[O-])[C@@H]2c1ccc(Br)cc1
Candida albicans [1]
  MIC: 8 µg/mL (≈ 13.3 µM)

## O=C1Nc2ccccc2[C@@]12N[C@H](Cc1c[nH]cn1)[C@@H]([N+](=O)[O-])[C@@H]2c1ccccc1
Candida albicans [1]
  MIC: 16 µg/mL (≈ 41.1 µM)

## O=C1Nc2ccc(OC(F)(F)F)cc2[C@@]12N[C@H](Cc1c[nH]cn1)[C@@H]([N+](=O)[O-])[C@@H]2c1ccccc1Cl
Candida albicans [2]
  MIC: 8 µg/mL (≈ 15.8 µM)
Candida albicans [3]
  MIC: 16 µg/mL (≈ 31.5 µM)
Candida albicans [4]
  MIC: 8 µg/mL (≈ 15.8 µM)
Candida albicans [5]
  MIC: 16 µg/mL (≈ 31.5 µM)
Candida albicans [6]
  Activity: 30 - 40%
Cryptococcus neoformans [7]
  MIC: 8 µg/mL (≈ 15.8 µM)
Candida albicans [8]
  MIC: 16 µg/mL (≈ 31.5 µM)
Candida albicans [9]
  MIC: 16 µg/mL (≈ 31.5 µM)
Cryptococcus neoformans [10]
  MIC: 16 µg/mL (≈ 31.5 µM)
Candida albicans [1]
  MIC: 4 µg/mL (≈ 7.88 µM)
Cryptococcus neoformans [11]
  MIC: 16 µg/mL (≈ 31.5 µM)
Candida albicans [12]
  MIC: 8 µg/mL (≈ 15.8 µM)
Candida albicans [13]
  MIC: 8 µg/mL (≈ 15.8 µM)
Cryptococcus neoformans [14]
  MIC: 4 µg/mL (≈ 7.88 µM)
Cryptococcus neoformans [15]
  MIC: 16 µg/mL (≈ 31.5 µM)
Candida albicans [16]
  MIC: 4 µg/mL (≈ 7.88 µM)
Cryptococcus neoformans [17]
  MIC: 16 µg/mL (≈ 31.5 µM)
Candida albicans [18]
  inhibition (INH): <=25%
Candida albicans [19]
  MIC: 4 µg/mL (≈ 7.88 µM)
HCT-116
  Activity: Non-Toxic
Candida albicans [20]
  inhibition: Active
Cryptococcus neoformans [21]
  MIC: 16 µg/mL (≈ 31.5 µM)
Candida albicans [22]
  MIC: 16 µg/mL (≈ 31.5 µM)
Candida albicans [23]
  MIC: 16 µg/mL (≈ 31.5 µM)
Candida albicans [24]
  MIC: 16 µg/mL (≈ 31.5 µM)
Candida albicans [25]
  MIC: 8 µg/mL (≈ 15.8 µM)
Candida albicans [26]
  MIC: 8 µg/mL (≈ 15.8 µM)
Cryptococcus neoformans [27]
  MIC: 16 µg/mL (≈ 31.5 µM)

## O=C1Nc2ccccc2[C@@]12N[C@H](Cc1c[nH]c3ccccc13)[C@@H]([N+](=O)[O-])[C@@H]2c1ccccc1
Candida albicans [1]
  MIC: 64 µg/mL (≈ 146 µM)

## Cc1ccc([C@H]2[C@H]([N+](=O)[O-])[C@@H](Cc3c[nH]c4ccccc34)N[C@]23C(=O)Nc2ccc(OC(F)(F)F)cc23)cc1
Candida albicans [1]
  MIC: 32 µg/mL (≈ 59.6 µM)

## COc1ccc([C@H]2[C@H]([N+](=O)[O-])[C@@H](Cc3c[nH]c4ccccc34)N[C@]23C(=O)Nc2ccc(OC(F)(F)F)cc23)cc1
Candida albicans [1]
  MIC: 16 µg/mL (≈ 29 µM)

## Cc1ccc([C@H]2[C@H]([N+](=O)[O-])[C@@H](Cc3c[nH]c4ccccc34)N[C@]23C(=O)Nc2ccccc23)cc1
Candida albicans [1]
  MIC: 128 µg/mL (≈ 283 µM)

## COc1ccc([C@H]2[C@H]([N+](=O)[O-])[C@@H](Cc3c[nH]cn3)N[C@]23C(=O)Nc2ccccc23)cc1
Candida albicans [1]
  MIC: 32 µg/mL (≈ 76.3 µM)

## O=C1Nc2ccccc2[C@@]12N[C@H](Cc1c[nH]cn1)[C@@H]([N+](=O)[O-])[C@@H]2c1ccc(Cl)cc1
Candida albicans [1]
  MIC: 8 µg/mL (≈ 18.9 µM)

## O=C1Nc2ccc(OC(F)(F)F)cc2[C@@]12N[C@H](Cc1c[nH]cn1)[C@@H]([N+](=O)[O-])[C@@H]2c1ccc(Br)cc1
Candida albicans [1]
  MIC: 8 µg/mL (≈ 14.5 µM)

## O=C1Nc2ccc(OC(F)(F)F)cc2[C@@]12N[C@H](Cc1c[nH]c3ccccc13)[C@@H]([N+](=O)[O-])[C@@H]2c1ccccc1
Candida albicans [1]
  MIC: 8 µg/mL (≈ 15.3 µM)

## Cc1ccc([C@H]2[C@H]([N+](=O)[O-])[C@@H](Cc3c[nH]cn3)N[C@]23C(=O)Nc2ccccc23)cc1
Candida albicans [1]
  MIC: 64 µg/mL (≈ 159 µM)

## O=C1Nc2ccc(OC(F)(F)F)cc2[C@@]12N[C@H](Cc1c[nH]cn1)[C@@H]([N+](=O)[O-])[C@@H]2c1cccc([N+](=O)[O-])c1
Candida albicans [1]
  MIC: 32 µg/mL (≈ 61.7 µM)

## O=C1Nc2ccccc2[C@@]12N[C@H](Cc1c[nH]cn1)[C@@H]([N+](=O)[O-])[C@@H]2c1ccccc1Cl
Candida albicans [1]
  MIC: 8 µg/mL (≈ 18.9 µM)

## O=C1Nc2ccc(OC(F)(F)F)cc2[C@@]12N[C@H](Cc1c[nH]c3ccccc13)[C@@H]([N+](=O)[O-])[C@@H]2c1ccc(Cl)cc1
Candida albicans [1]
  MIC: 16 µg/mL (≈ 28.7 µM)

## O=C1Nc2ccc(OC(F)(F)F)cc2[C@@]12N[C@H](Cc1c[nH]cn1)[C@@H]([N+](=O)[O-])[C@@H]2c1ccc(Cl)cc1
Candida albicans [1]
  MIC: 8 µg/mL (≈ 15.8 µM)

## O=C1Nc2ccccc2[C@@]12N[C@H](Cc1c[nH]c3ccccc13)[C@@H]([N+](=O)[O-])[C@@H]2c1ccc(Cl)cc1
Candida albicans [1]
  MIC: 16 µg/mL (≈ 33.8 µM)

## O=C1Nc2ccccc2[C@@]12N[C@H](Cc1c[nH]cn1)[C@@H]([N+](=O)[O-])[C@@H]2c1cccc([N+](=O)[O-])c1
Candida albicans [1]
  MIC: 16 µg/mL (≈ 36.8 µM)

## COc1ccc([C@H]2[C@H]([N+](=O)[O-])[C@@H](Cc3c[nH]cn3)N[C@]23C(=O)Nc2ccc(OC(F)(F)F)cc23)cc1
Candida albicans [1]
  MIC: 32 µg/mL (≈ 63.6 µM)

## O=C1Nc2ccccc2[C@@]12N[C@H](Cc1c[nH]cn1)[C@@H]([N+](=O)[O-])[C@@H]2c1ccc(Br)cc1
Candida albicans [1]
  MIC: 16 µg/mL (≈ 34.2 µM)

## COc1ccc([C@H]2[C@H]([N+](=O)[O-])[C@@H](Cc3c[nH]c4ccccc34)N[C@]23C(=O)Nc2ccccc23)cc1
Candida albicans [1]
  MIC: 16 µg/mL (≈ 34.2 µM)

## Cc1ccc([C@H]2[C@H]([N+](=O)[O-])[C@@H](Cc3c[nH]cn3)N[C@]23C(=O)Nc2ccc(OC(F)(F)F)cc23)cc1
Candida albicans [1]
  MIC: 16 µg/mL (≈ 32.8 µM)
